Laboratory results reported in PubChem BioAssay (NCI).
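Each compound was tested at five concentrations against cells in 96-well plates for 48 hours. GI50 is the concentration that inhibits growth by half. Definition used: TGI = concentration required for complete inhibition of growth.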

How the values were obtained:
Experiment in all cases: DTP human tumour cell line panel, 48 h
786-0 renal = system: 786-0 renal
A498 renal = system: A498 renal
A549 NSCLC = system: A549 NSCLC
ACHN renal = system: ACHN renal
BT-549 breast = system: BT-549 breast
CAKI-1 renal = system: CAKI-1 renal
CCRF-CEM leukemia = system: CCRF-CEM leukemia
COLO 205 colon = system: COLO 205 colon
DU-145 prostate = system: DU-145 prostate
EKVX NSCLC = system: EKVX NSCLC
HCC-2998 colon = system: HCC-2998 colon
HCT-116 colon = system: HCT-116 colon
HCT-15 colon = system: HCT-15 colon
HL-60(TB) leukemia = system: HL-60(TB) leukemia
HOP-62 NSCLC = system: HOP-62 NSCLC
HOP-92 NSCLC = system: HOP-92 NSCLC
HS 578T breast = system: HS 578T breast
HT29 colon = system: HT29 colon
IGROV1 ovarian = system: IGROV1 ovarian
K-562 leukemia = system: K-562 leukemia
KM12 colon = system: KM12 colon
LOX IMVI melanoma = system: LOX IMVI melanoma
M14 melanoma = system: M14 melanoma
MALME-3M melanoma = system: MALME-3M melanoma
MCF7 breast = system: MCF7 breast
MDA-MB-231 breast = system: MDA-MB-231 breast
MDA-MB-435 = system: MDA-MB-435
MOLT-4 leukemia = system: MOLT-4 leukemia
NCI-H226 lung = system: NCI-H226 lung
NCI-H23 lung = system: NCI-H23 lung
NCI-H460 lung = system: NCI-H460 lung
NCI-H522 lung = system: NCI-H522 lung
NCI/ADR-RES ovarian = system: NCI/ADR-RES ovarian
OVCAR-3 ovarian = system: OVCAR-3 ovarian
OVCAR-4 ovarian = system: OVCAR-4 ovarian
OVCAR-5 ovarian = system: OVCAR-5 ovarian
OVCAR-8 ovarian = system: OVCAR-8 ovarian
PC-3 prostate = system: PC-3 prostate
RPMI-8226 leukemia = system: RPMI-8226 leukemia
RXF 393 renal = system: RXF 393 renal
SF-268 CNS = system: SF-268 CNS
SF-295 CNS = system: SF-295 CNS
SF-539 CNS = system: SF-539 CNS
SK-MEL-2 melanoma = system: SK-MEL-2 melanoma
SK-MEL-28 melanoma = system: SK-MEL-28 melanoma
SK-MEL-5 melanoma = system: SK-MEL-5 melanoma
SK-OV-3 ovarian = system: SK-OV-3 ovarian
SN12C renal = system: SN12C renal
SNB-19 CNS = system: SNB-19 CNS
SNB-75 CNS = system: SNB-75 CNS
SR leukemia = system: SR leukemia
SW-620 colon = system: SW-620 colon
T-47D breast = system: T-47D breast
TK-10 renal = system: TK-10 renal
U251 CNS = system: U251 CNS
UACC-257 melanoma = system: UACC-257 melanoma
UACC-62 melanoma = system: UACC-62 melanoma
UO-31 renal = system: UO-31 renal

Structure (SMILES): COc1cccc(/C=C2\COc3ccc(O)c(O)c3C2=O)c1OC
- GI50 (786-0 renal): 1.89 µM
- TGI (786-0 renal): 5.62 µM
- GI50 (A498 renal): 4.01 µM
- TGI (A498 renal): 13.9 µM
- GI50 (A549 NSCLC): 2.58 µM
- TGI (A549 NSCLC): 14.2 µM
- GI50 (ACHN renal): 3.27 µM
- TGI (ACHN renal): 12.2 µM
- GI50 (BT-549 breast): 1.89 µM
- TGI (BT-549 breast): 8.7 µM
- GI50 (CAKI-1 renal): 1.71 µM
- TGI (CAKI-1 renal): 4.69 µM
- GI50 (CCRF-CEM leukemia): 0.61 µM
- TGI (CCRF-CEM leukemia): > 100 µM
- GI50 (COLO 205 colon): 3.01 µM
- TGI (COLO 205 colon): 8.38 µM
- GI50 (DU-145 prostate): 2.61 µM
- TGI (DU-145 prostate): 10.4 µM
- GI50 (EKVX NSCLC): 4.29 µM
- TGI (EKVX NSCLC): 16.9 µM
- GI50 (HCC-2998 colon): 1.99 µM
- TGI (HCC-2998 colon): 3.96 µM
- GI50 (HCT-116 colon): 1.9 µM
- TGI (HCT-116 colon): 4.89 µM
- GI50 (HCT-15 colon): 1.6 µM
- TGI (HCT-15 colon): 10.5 µM
- GI50 (HL-60(TB) leukemia): 1.04 µM
- TGI (HL-60(TB) leukemia): > 100 µM
- GI50 (HOP-62 NSCLC): 8.79 µM
- TGI (HOP-62 NSCLC): 22.8 µM
- GI50 (HOP-92 NSCLC): 2.69 µM
- TGI (HOP-92 NSCLC): 8.81 µM
- GI50 (HS 578T breast): 3.99 µM
- TGI (HS 578T breast): 31.5 µM
- GI50 (HT29 colon): 3.33 µM
- TGI (HT29 colon): 10.1 µM
- GI50 (IGROV1 ovarian): 2.62 µM
- TGI (IGROV1 ovarian): 10.9 µM
- GI50 (K-562 leukemia): 1.47 µM
- TGI (K-562 leukemia): > 100 µM
- GI50 (KM12 colon): 1.67 µM
- TGI (KM12 colon): 3.92 µM
- GI50 (LOX IMVI melanoma): 1.53 µM
- TGI (LOX IMVI melanoma): 3.08 µM
- GI50 (M14 melanoma): 2.56 µM
- TGI (M14 melanoma): 9.3 µM
- GI50 (MALME-3M melanoma): 2.09 µM
- TGI (MALME-3M melanoma): 6.11 µM
- GI50 (MCF7 breast): 1.76 µM
- TGI (MCF7 breast): 14.9 µM
- GI50 (MDA-MB-231 breast): 3.32 µM
- TGI (MDA-MB-231 breast): 13.4 µM
- GI50 (MDA-MB-435): 2.3 µM
- TGI (MDA-MB-435): 7 µM
- GI50 (MOLT-4 leukemia): 1.83 µM
- TGI (MOLT-4 leukemia): > 100 µM
- GI50 (NCI-H226 lung): 10.7 µM
- TGI (NCI-H226 lung): 51.2 µM
- GI50 (NCI-H23 lung): 2.9 µM
- TGI (NCI-H23 lung): 11.1 µM
- GI50 (NCI-H460 lung): 2.34 µM
- TGI (NCI-H460 lung): 7.12 µM
- GI50 (NCI-H522 lung): 0.19 µM
- TGI (NCI-H522 lung): 0.473 µM
- GI50 (NCI/ADR-RES ovarian): 3.48 µM
- TGI (NCI/ADR-RES ovarian): 97.2 µM
- GI50 (OVCAR-3 ovarian): 1.16 µM
- TGI (OVCAR-3 ovarian): 2.85 µM
- GI50 (OVCAR-4 ovarian): 2.17 µM
- TGI (OVCAR-4 ovarian): 8.47 µM
- GI50 (OVCAR-5 ovarian): 3.51 µM
- TGI (OVCAR-5 ovarian): 13.6 µM
- GI50 (OVCAR-8 ovarian): 2.76 µM
- TGI (OVCAR-8 ovarian): 20.9 µM
- GI50 (PC-3 prostate): 2.22 µM
- TGI (PC-3 prostate): 11 µM
- GI50 (RPMI-8226 leukemia): 0.547 µM
- TGI (RPMI-8226 leukemia): 8.7 µM
- GI50 (RXF 393 renal): 1.76 µM
- TGI (RXF 393 renal): 3.42 µM
- GI50 (SF-268 CNS): 2.12 µM
- TGI (SF-268 CNS): 10.3 µM
- GI50 (SF-295 CNS): 6.07 µM
- TGI (SF-295 CNS): 19.1 µM
- GI50 (SF-539 CNS): 2.07 µM
- TGI (SF-539 CNS): 4.77 µM
- GI50 (SK-MEL-2 melanoma): 2.35 µM
- TGI (SK-MEL-2 melanoma): 6.34 µM
- GI50 (SK-MEL-28 melanoma): 3.53 µM
- TGI (SK-MEL-28 melanoma): 12.9 µM
- GI50 (SK-MEL-5 melanoma): 2.05 µM
- TGI (SK-MEL-5 melanoma): 4.3 µM
- GI50 (SK-OV-3 ovarian): 7.18 µM
- TGI (SK-OV-3 ovarian): 21 µM
- GI50 (SN12C renal): 2.77 µM
- TGI (SN12C renal): 12.9 µM
- GI50 (SNB-19 CNS): 3.07 µM
- TGI (SNB-19 CNS): 12 µM
- GI50 (SNB-75 CNS): 3.61 µM
- TGI (SNB-75 CNS): 20.9 µM
- GI50 (SR leukemia): 1.51 µM
- TGI (SR leukemia): > 100 µM
- GI50 (SW-620 colon): 2.1 µM
- TGI (SW-620 colon): 5.44 µM
- GI50 (T-47D breast): 1.66 µM
- TGI (T-47D breast): 22.1 µM
- GI50 (TK-10 renal): 2.36 µM
- TGI (TK-10 renal): 8.19 µM
- GI50 (U251 CNS): 2 µM
- TGI (U251 CNS): 10.5 µM
- GI50 (UACC-257 melanoma): 2.37 µM
- TGI (UACC-257 melanoma): 7.18 µM
- GI50 (UACC-62 melanoma): 1.8 µM
- TGI (UACC-62 melanoma): 4.53 µM
- GI50 (UO-31 renal): 1.1 µM
- TGI (UO-31 renal): 2.4 µM
